In ChEMBL document CHEMBL1201862, “PubChem BioAssay data set” (2004):
The source made the active and inactive calls.

Legend:
[1] = biological target: Induced myeloid leukemia cell differentiation protein Mcl-1 (Homo sapiens, UniProt Q07820); type: functional
[2] = biological target: Genome polyprotein (dengue virus type 2, UniProt P29990); assay: Dengue-2 NS5 methyltransferase inhibitors, primary screen, biochemical, confirmation dose response (AID 588689); type: functional
[3] = biological target: T1, Polyadenylate-binding protein 1 (Homo sapiens, UniProt P11940); assay: PABP1 MLLE–PAM2 interaction inhibitors, dose response, miRNA deadenylation inhibitor project, biochemical, fluorescence polarization, Cy5-PAM2 peptide, secondary (AID 602260); type: functional; settings: read-out: IC50_Mean
[4] = biological target: T2, Tyrosine-protein phosphatase non-receptor type 7 (Homo sapiens, UniProt P35236); assay: redox-dependent HePTP inhibition, mechanism study, biochemical, fluorescence (AID 2068); type: functional
T2 sequence (P35236 whole entry): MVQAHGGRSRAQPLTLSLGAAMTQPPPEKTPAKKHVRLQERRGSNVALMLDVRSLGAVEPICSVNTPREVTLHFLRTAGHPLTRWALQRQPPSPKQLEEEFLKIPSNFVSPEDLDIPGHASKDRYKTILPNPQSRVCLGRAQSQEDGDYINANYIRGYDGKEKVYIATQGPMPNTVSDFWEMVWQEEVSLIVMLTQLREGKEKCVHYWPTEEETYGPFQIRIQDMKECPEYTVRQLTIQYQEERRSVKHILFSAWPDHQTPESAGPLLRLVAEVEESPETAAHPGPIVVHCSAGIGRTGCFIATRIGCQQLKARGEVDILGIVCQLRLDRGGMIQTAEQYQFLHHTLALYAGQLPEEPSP

[5] = biological target: T1, Polyadenylate-binding protein 1; assay: PABP1 MLLE–PAM2 binding inhibitor potency, dose response, biochemical, fluorescence polarization, FITC-PAM2 peptide (AID 602259); type: functional; settings: read-out: IC50_Mean
[6] = test system: T-cell; assay: inhibitors of CD8+ T cell–vesicle binding, dose response, mouse 2C CD8+ T cells, flow cytometry (AID 485284); type: functional
[7] = biological target: CAAX prenyl protease 2 (Saccharomyces cerevisiae S288c, UniProt Q03530); type: biochemical
[8] = biological target: T3, Small ubiquitin-related modifier 2 (Homo sapiens, UniProt P61956); assay: inhibitors of SUMO2 protein-protein interaction, dose response, selectivity assay for SUMO1 interaction inhibitor project, biochemical, FRET, human SUMO2, uHTS hits (AID 624384); type: functional; settings: read-out: IC50_Mean
[9] = biological target: T4, SUMO-activating enzyme (Homo sapiens, UniProt Q9UBT2); assay: SUMOylation inhibitor hit validation, confirmation, SUMOylation inhibitor project, biochemical, AlphaScreen (AID 2018); type: functional
[10] = biological target: T5, Small ubiquitin-related modifier 1 (Homo sapiens, UniProt P63165); assay: inhibitors of SUMO1 partner interactions, dose response, biochemical, FRET (AID 624383); type: functional; settings: read-out: IC50_Mean
[11] = biological target: T5, Small ubiquitin-related modifier 1; assay: inhibitors of SUMO1 peptide binding, dose response, biochemical, fluorescence polarization, uHTS hits (AID 624382); type: functional; settings: read-out: IC50_Mean
[12] = biological target: Eukaryotic translation initiation factor 4E (Mus musculus, UniProt P63073); assay: eIF4E–eIF4G protein interaction inhibitors, dose response, biochemical, TR-FRET (AID 855); type: functional;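 also: potency for disrupting eIF4E binding to eIF4GI seen as loss of FRET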
[13] = biological target: T4, SUMO-activating enzyme; assay: inhibitors of in vitro SUMOylation cascade, primary screen, biochemical, HTRF, uHTS (AID 2006); type: protein-complex assay
[14] = biological target: Envelope glycoprotein gp160 (Human immunodeficiency virus 1, UniProt Q6QLK5); assay: inhibitors of HIV fusion peptide binding, primary screen, biochemical, uHTS, fluorescence dequenching (AID 1986)
[15] = biological target: T3, Small ubiquitin-related modifier 2; assay: SUMO2–SIM peptide binding inhibitors, dose response, selectivity assay for SUMO1 interaction inhibitor project, biochemical, fluorescence polarization, uHTS hits (AID 624385); type: functional; settings: read-out: IC50_Mean
[16] = biological target: Phosphoethanolamine/phosphocholine phosphatase (Homo sapiens, UniProt Q8TCT1); assay: SAR assay for compounds that inhibit PHOSPHO1. [Related pubchem assays (depositor defined):AID1545, AID1565, AID1574]
[17] = biological target: T6, Alkaline phosphatase, tissue-nonspecific isozyme (Homo sapiens, UniProt P05186); assay: human TNAP enzyme inhibitors, SAR follow-up, biochemical, luminescent, dose response (AID 1056)
T6 sequence (P05186 whole entry): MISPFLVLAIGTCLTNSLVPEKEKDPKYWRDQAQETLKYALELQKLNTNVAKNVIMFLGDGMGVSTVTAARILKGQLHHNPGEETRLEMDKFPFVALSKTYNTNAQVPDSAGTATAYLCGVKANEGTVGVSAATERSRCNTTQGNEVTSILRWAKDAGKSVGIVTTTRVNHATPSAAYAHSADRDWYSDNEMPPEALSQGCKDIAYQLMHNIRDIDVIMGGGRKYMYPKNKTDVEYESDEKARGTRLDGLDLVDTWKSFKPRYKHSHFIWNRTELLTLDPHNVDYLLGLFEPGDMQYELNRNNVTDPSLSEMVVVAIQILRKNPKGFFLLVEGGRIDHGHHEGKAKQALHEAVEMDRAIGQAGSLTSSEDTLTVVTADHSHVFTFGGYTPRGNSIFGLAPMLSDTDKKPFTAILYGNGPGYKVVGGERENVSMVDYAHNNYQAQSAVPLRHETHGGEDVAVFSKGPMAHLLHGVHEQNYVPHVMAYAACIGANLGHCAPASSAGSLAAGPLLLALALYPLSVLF

[18] = biological target: Phosphomannomutase 2 (Homo sapiens, UniProt O15305); assay: Counter screen SAR assay for PMM2 inhibitors via a fluorescence intensity assay. [Related pubchem assays (depositor defined):AID1545, AID1574]
[19] = biological target: Diphosphomevalonate decarboxylase (Streptococcus pneumoniae serotype 2 (strain D39 / NCTC 7466), UniProt Q9FD53); assay: S. pneumoniae DPM-DC inhibition retest, confirmation, biochemical, cuvette format, coupled NADH fluorescence (AID 1028); type: functional
Sequence of Diphosphomevalonate decarboxylase (Q9FD53 whole entry): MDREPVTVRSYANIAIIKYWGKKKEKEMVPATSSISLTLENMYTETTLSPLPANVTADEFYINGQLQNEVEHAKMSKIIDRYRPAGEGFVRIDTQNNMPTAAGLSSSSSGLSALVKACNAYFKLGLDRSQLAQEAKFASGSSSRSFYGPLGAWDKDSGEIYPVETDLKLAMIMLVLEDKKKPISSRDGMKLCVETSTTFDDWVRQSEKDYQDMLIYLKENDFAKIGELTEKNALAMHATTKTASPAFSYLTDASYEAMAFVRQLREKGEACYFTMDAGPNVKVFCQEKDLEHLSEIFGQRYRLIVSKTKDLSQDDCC

Sequence of Induced myeloid leukemia cell differentiation protein Mcl-1 (Q07820 whole entry): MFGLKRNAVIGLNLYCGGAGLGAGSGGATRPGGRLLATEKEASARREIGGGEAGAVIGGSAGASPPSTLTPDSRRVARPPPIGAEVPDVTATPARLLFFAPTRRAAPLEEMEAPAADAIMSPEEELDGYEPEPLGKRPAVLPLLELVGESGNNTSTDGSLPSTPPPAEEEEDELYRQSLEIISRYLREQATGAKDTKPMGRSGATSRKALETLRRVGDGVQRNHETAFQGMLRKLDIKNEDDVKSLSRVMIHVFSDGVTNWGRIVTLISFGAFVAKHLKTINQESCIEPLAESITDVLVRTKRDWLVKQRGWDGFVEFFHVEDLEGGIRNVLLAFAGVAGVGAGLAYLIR
T3 sequence (P61956 whole entry): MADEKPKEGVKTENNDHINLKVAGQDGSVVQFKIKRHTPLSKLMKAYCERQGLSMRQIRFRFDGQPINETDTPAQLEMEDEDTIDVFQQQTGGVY
T4 sequence (Q9UBE0 whole entry): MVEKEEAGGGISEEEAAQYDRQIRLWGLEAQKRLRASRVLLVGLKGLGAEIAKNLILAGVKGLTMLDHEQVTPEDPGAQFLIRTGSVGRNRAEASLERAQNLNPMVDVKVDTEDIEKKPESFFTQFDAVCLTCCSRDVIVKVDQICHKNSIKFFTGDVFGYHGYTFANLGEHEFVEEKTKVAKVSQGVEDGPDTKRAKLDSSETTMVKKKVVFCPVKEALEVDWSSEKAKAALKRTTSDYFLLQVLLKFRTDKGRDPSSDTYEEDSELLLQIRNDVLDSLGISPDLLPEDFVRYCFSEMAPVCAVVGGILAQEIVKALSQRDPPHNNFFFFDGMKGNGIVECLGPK
T4 sequence (Q9UBT2 whole entry): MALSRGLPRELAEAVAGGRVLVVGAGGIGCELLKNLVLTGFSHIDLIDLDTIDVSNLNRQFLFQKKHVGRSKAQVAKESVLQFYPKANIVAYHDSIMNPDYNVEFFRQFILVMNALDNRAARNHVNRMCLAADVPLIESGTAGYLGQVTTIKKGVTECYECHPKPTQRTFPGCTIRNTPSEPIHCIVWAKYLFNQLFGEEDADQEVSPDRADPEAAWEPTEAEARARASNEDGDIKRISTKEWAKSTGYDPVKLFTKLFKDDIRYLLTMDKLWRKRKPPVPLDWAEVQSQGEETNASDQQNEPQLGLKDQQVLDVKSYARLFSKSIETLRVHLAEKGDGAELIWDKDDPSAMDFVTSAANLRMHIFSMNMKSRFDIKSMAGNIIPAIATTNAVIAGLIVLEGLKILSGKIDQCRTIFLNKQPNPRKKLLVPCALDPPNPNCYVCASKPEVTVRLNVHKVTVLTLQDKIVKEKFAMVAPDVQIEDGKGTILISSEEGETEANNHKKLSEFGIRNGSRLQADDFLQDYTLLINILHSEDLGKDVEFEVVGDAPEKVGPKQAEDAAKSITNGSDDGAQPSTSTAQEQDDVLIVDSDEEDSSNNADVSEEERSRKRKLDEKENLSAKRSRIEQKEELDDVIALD
T1 sequence (P11940 whole entry): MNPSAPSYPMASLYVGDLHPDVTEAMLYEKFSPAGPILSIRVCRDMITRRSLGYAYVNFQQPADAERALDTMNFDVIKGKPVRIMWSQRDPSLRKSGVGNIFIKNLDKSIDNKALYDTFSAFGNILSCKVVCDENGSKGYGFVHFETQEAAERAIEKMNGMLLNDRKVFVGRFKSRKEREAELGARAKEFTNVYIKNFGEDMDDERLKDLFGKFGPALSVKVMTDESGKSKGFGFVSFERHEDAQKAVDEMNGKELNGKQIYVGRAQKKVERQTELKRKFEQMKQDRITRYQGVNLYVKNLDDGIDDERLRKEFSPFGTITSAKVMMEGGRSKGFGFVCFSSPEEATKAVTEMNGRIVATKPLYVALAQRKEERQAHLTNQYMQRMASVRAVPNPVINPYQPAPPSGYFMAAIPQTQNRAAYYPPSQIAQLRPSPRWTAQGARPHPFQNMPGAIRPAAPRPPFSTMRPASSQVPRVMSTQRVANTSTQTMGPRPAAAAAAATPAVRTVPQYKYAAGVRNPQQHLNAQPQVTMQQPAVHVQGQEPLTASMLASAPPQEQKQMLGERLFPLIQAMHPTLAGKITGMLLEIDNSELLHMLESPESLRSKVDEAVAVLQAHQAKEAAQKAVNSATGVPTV
T5 sequence (P63165 whole entry): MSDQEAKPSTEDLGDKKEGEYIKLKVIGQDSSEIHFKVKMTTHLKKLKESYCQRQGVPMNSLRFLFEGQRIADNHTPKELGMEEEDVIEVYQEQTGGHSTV
Sequence of Phosphoethanolamine/phosphocholine phosphatase (Q8TCT1 whole entry): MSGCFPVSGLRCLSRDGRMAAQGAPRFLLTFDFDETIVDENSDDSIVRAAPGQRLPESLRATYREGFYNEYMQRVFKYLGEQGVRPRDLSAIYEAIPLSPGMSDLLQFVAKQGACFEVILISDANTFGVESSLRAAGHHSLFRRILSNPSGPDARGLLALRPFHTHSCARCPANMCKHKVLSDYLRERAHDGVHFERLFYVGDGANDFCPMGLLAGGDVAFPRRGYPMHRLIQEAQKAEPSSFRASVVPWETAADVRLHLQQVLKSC
Sequence of Eukaryotic translation initiation factor 4E (P63073 whole entry): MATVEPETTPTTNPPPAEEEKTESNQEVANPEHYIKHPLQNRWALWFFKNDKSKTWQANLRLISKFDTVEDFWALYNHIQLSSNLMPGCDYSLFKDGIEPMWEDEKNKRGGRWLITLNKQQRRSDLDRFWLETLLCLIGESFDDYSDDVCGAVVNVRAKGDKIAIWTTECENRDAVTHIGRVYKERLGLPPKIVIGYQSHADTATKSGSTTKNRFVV
Sequence of Genome polyprotein (P29990 2492-3391 limits assumed): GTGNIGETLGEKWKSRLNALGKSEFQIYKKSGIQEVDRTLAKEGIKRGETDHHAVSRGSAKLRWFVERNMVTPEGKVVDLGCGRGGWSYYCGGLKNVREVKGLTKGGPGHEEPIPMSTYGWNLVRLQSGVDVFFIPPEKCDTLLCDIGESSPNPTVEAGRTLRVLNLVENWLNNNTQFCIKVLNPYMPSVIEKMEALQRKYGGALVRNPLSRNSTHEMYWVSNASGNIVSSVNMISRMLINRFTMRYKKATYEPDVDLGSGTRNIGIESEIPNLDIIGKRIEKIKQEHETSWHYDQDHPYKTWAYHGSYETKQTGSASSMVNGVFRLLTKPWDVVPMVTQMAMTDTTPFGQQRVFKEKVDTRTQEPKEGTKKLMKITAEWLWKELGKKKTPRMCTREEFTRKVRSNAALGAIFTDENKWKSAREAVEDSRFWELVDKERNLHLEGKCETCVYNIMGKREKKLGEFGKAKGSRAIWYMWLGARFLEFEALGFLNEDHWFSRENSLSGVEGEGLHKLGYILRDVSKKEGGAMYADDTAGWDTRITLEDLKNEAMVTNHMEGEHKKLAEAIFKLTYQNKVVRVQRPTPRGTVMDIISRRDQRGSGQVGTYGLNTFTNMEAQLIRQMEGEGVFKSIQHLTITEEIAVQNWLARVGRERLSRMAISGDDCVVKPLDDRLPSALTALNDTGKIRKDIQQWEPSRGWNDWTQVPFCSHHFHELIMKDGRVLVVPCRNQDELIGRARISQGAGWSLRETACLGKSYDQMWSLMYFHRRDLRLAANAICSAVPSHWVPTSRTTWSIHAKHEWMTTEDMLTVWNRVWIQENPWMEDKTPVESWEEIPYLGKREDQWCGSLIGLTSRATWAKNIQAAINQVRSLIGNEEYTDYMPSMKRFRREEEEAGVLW
Sequence of CAAX prenyl protease 2 (Q03530 whole entry): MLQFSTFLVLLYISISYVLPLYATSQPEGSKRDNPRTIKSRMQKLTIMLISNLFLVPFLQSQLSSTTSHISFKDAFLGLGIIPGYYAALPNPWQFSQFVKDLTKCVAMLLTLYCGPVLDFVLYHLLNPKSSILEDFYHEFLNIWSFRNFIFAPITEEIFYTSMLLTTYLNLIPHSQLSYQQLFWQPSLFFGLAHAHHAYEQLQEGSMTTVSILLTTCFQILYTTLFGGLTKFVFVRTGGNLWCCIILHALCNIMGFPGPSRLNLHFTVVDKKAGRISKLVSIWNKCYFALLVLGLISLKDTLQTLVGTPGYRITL
Sequence of Phosphomannomutase 2 (O15305 whole entry): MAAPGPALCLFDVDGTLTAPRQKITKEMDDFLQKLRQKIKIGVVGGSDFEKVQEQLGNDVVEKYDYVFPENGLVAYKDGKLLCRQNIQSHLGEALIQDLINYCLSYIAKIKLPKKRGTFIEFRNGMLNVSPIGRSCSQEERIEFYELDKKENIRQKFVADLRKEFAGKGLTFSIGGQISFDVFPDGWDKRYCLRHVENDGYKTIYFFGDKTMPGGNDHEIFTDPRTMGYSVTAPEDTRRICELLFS

COc1ccc2nc(-c3ccco3)c(-c3ccco3)nc2c1
IC50 [1]: 3.09 µM (active)
IC50 [2]: 73.9 µM (active)
IC50 [3]: > 66 µM (inactive)
IC50 [4]: 2.79 µM (active)
IC50 [5]: > 66 µM (inactive)

COc1ccc(C2=CC(=O)CC(c3ccc(OC)cc3)C2)cc1 (stereo not given)
EC50 [6]: 4.09 µM (active)

CCN(CC)CCN(C(=O)c1cc2ccccc2cc1OC)c1nc2ccc(F)cc2s1
AC50 [7]: 6.98 µM (active)

O=C(O)c1cccc2c1NC(c1cccc([N+](=O)[O-])c1)C1CC(Sc3ccccc3[N+](=O)[O-])C(Cl)C21 (stereo not given)
IC50 [1]: 3.05 µM (active)
IC50 [8]: 6.16 µM (active)
IC50 [9]: 2.43 µM (active)
IC50 [10]: 36.6 µM (inactive)
IC50 [11]: 6.45 µM (active)
IC50 [12]: 50 µM (inactive)
IC50 [13]: 13.3 µM (active)
IC50 [14]: 12.5 µM (active)
IC50 [15]: 6.5 µM (active)

CN(C)C(=O)c1cccc(-n2sc3ccccc3c2=O)c1
IC50 [16]: 139 nM (active)
IC50 [17]: > 100 µM (inactive)
IC50 [18]: 76.4 µM (active)
IC50 [19]: 24.4 µM (active)
